According to ChEMBL document CHEMBL5154857, “Discovery of potential novel CRBN modulators by virtual screening and bioassay” (Eur J Med Chem, 2022):

Key:
Type in all cases: functional
MCF7 = experiment: Antitumor activity against human MCF7 cells assessed as inhibition of cell growth at 40 uM incubated for 48 hrs by MTS assay relative to control
A549 [1] = experiment: Antitumor activity against human A549 cells assessed as inhibition of cell growth at 40 uM incubated for 48 hrs by MTS assay relative to control
SW480 = experiment: Antitumor activity against human SW480 cells assessed as inhibition of cell growth at 40 uM incubated for 48 hrs by MTS assay relative to control
SMMC-7721 = experiment: Antitumor activity against human SMMC-7721 cells assessed as inhibition of cell growth at 40 uM incubated for 48 hrs by MTS assay relative to control
HL-60 = experiment: Antitumor activity against human HL-60 cells assessed as inhibition of cell growth at 40 uM incubated for 48 hrs by MTS assay relative to control
A549 [2] = experiment: Induction of apoptosis in human A549 cells assessed as late apoptotic cells at 1 uM measured after 24 hrs by Annexin V-PE/7-AAD dual staining based flow cytometry (reference value: […])
A549 [3] = experiment: Induction of apoptosis in human A549 cells assessed as live cells at 1 uM measured after 24 hrs by Annexin V-PE/7-AAD dual staining based flow cytometry (reference value: 93.3 %)
A549 [4] = experiment: Induction of apoptosis in human A549 cells assessed as early apoptotic cells at 1 uM measured after 24 hrs by Annexin V-PE/7-AAD dual staining based flow cytometry (reference value: 4.04 %)
A549 [5] = experiment: Induction of apoptosis in human A549 cells assessed as necrotic cells at 1 uM measured after 24 hrs by Annexin V-PE/7-AAD dual staining based flow cytometry (reference value: 0.150 %)

SMILES	inhibition at 40 µM (MCF7) [%]	inhibition at 40 µM (A549 [1]) [%]	inhibition at 40 µM (SW480) [%]	inhibition at 40 µM (SMMC-7721) [%]	inhibition at 40 µM (HL-60) [%]	Activity (A549 [2]) [%]	Activity (A549 [3]) [%]	Activity (A549 [4]) [%]	Activity (A549 [5]) [%]
Cc1cccc(NC(=O)CN2C(=O)C(=O)c3ccccc32)c1	45.2	7.75	31.8	40.2	25.1	–	–	–	–
NC(=O)CN1C(=O)C(O)(CC(=O)c2ccc3c(c2)OCO3)c2ccccc21 (centres undefined)	6.11	11.2	14.8	11.6	21.6	–	–	–	–
CCOC(=O)C1(Cc2ccccc2)C(=O)N(CCCN(C)C)c2ccccc21 (centres undefined)	28.9	7.46	3.98	12.8	5.85	–	–	–	–
O=C(CC1(O)C(=O)N(CN2CCOCC2)c2ccccc21)c1ccc(Cl)cc1 (centres undefined)	8.23	1.72	15.3	15.2	15.6	–	–	–	–
CC1=CC(C2CC(=O)N(c3ccccc3C)C2=O)CC2C(=O)N(c3ccccc3C)C(=O)C12 (centres undefined)	12.3	4.1	6.73	9.68	10.7	–	–	–	–
N#CCCCN1C(=O)C(O)(CC(=O)c2ccc3c(c2)OCCO3)c2ccccc21 (centres undefined)	-0.19	7.13	13.5	11.5	-21.4	–	–	–	–
COc1cccc2c1C(=O)c1c(O)c3c(c(O)c1C2=O)C[C@@](O)(C(=O)CO)C[C@@H]3O[C@H]1C[C@H](N)[C@H](O)[C@H](C)O1 [DOXORUBICIN]	–	–	–	–	–	18.4	49.8	30.8	0.965
O=C(NCC1(N2CCOCC2)CCCCC1)c1ccc2c(c1)C(=O)N(c1ccc(F)cc1)C2=O	13.6	9.68	8.82	16.4	11.5	–	–	–	–
COc1cc(C(C)=O)ccc1OC(=O)C(C)N1C(=O)c2ccccc2C1=O (centres undefined)	15.3	6.5	4.18	6.87	8.86	–	–	–	–
